Measured values as given in patent US20060084691A1, “Combined treatment with bortezomib and an epidermal growth factor receptor kinase inhibitor” (priority 2004, published 2006).
Structures can show the parent of a compound that is named as a salt.

Legend:
Type in all cases: cell-based, human
[1] = system: ubiquitinated p53 in A549 cells; experiment: p53 expression by western blot; details: A549 cells with wild type p53, single agent
Method: Cells were scraped from the culture, washed twice with PBS, and then suspended in 60-100 μL of Western blot lysis buffer containing 50 mM Tris-HCl (pH 7.5), 250 mM NaCl, 1 mM EDTA, 1 mM EGTA, 1 mM NaF, 1 mM phenylmethylsulfonyl fluoride, 1 mM DTT, 20 μg/mL leupeptin, 20 μg/mL aprotinin, 0.1% Triton X-100 and 1% SDS at 0-4° C. for 15 min. After centrifugation at 1500× g for 10 min at 0° C., the supernatants were collected, and the proteins were separated on 10% SDS-PAGE. After electrophoresis, protein blots were transferred to a nitrocellulose membrane. The membrane was blocked with 5% nonfat milk powder in TBST and incubated overnight with the corresponding primary antibodies at 4° C. After washing three times with TBST, the membrane was incubated at room temperature for 1 h with horseradish peroxidase-conjugated secondary antibody diluted with TBST (1:1000). The detected protein signals were visualized by an enchanced cheiluminescence reaction system (Amersham, Arlington Heights, Ill.).
A549 cells with wild type p53 were exposed to either bortezomib or erlotinib alone, or in combination concomitantly or sequentially 24-hr apart, and p53 expression was assessed by western blot.

H322 = experiment: MTT cytotoxicity assay, H322; details: H322, 72 h
A549 = experiment: MTT cytotoxicity assay, A549; details: A549, 72 h
H1299 = experiment: MTT cytotoxicity assay, H1299; details: H1299, 72 h
H358 = experiment: MTT cytotoxicity assay, H358; details: H358, 72 h
[2] = system: EGF-induced EGFR-phosphorylation; experiment: EGF-induced EGFR phosphorylation in sensitive and resistant cells; details: both sensitive and resistant cells
Method: Cells were scraped from the culture, washed twice with PBS, and then suspended in 60-100 μL of Western blot lysis buffer containing 50 mM Tris-HCl (pH 7.5), 250 mM NaCl, 1 mM EDTA, 1 mM EGTA, 1 mM NaF, 1 mM phenylmethylsulfonyl fluoride, 1 mM DTT, 20 μg/mL leupeptin, 20 μg/mL aprotinin, 0.1% Triton X-100 and 1% SDS at 0-4° C. for 15 min. […] After electrophoresis, protein blots were transferred to a nitrocellulose membrane. The membrane was blocked with 5% nonfat milk powder in TBST and incubated overnight with the corresponding primary antibodies at 4° C. After washing three times with TBST, the membrane was incubated at room temperature for 1 h with horseradish peroxidase-conjugated secondary antibody diluted with TBST (1:1000). The detected protein signals were visualized by an enchanced cheiluminescence reaction system (Amersham, Arlington Heights, Ill.).

| Structure (SMILES) | p53 expression (western blot) [1] | Sensitivity (cytotoxicity) (H322) | Sensitivity (cytotoxicity) (A549) | Sensitivity (cytotoxicity) (H1299) | Sensitivity (cytotoxicity) (H358) | EGF-induced EGFR-phosphorylation [2] |
| --- | --- | --- | --- | --- | --- | --- |
| CC(C)C[C@H](NC(=O)[C@H](Cc1ccccc1)NC(=O)c1cnccn1)B(O)O [bortezomib] | accumulation of ubiquitinated p53 |  |  |  |  |  |
| C#Cc1cccc(Nc2ncnc3cc(OCCOC)c(OCCOC)cc23)c1 [erlotinib HCl, [6,7-bis(2-methoxyethoxy)-4-quinazolin-4-yl]-(3-ethynylphenyl) amine] |  | sensitive | resistant | resistant | sensitive | inhibits |
